Assay results as given in PubChem BioAssay (NCI).
“And” between values parts separate entries of the source, which are not always exact repeats. Identical values can stand only once.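 Five compound concentrations were applied to cells in 96-well plates for 48 hours; endpoints were derived by simple linear interpolation of the resulting dose-response curve. Here, GI50 denotes the concentration required for 50% inhibition of growth. TGI: total growth inhibition.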

Key:
Experiment in all cases: NCI anticancer screen, dose series, 48 h
[1] = test system: COLO 205 colon
[2] = test system: DMS 114 small cell lung
[3] = test system: K-562 leukemia
[4] = test system: LXFL 529 NSCLC
[5] = test system: M19-MEL melanoma
[6] = test system: NCI-H460 lung
[7] = test system: OVCAR-4 ovarian
[8] = test system: RPMI-8226 leukemia
[9] = test system: UACC-257 melanoma
[10] = test system: UO-31 renal
[11] = test system: PC-3 prostate

Row | SMILES | TGI [1] | TGI [2] | TGI [3] | TGI [4] | TGI [5] | TGI [6] | TGI [7] | TGI [8] | TGI [9] | TGI [10] | TGI [11] | GI50 [1] | GI50 [6] | GI50 [9] | GI50 [10] | GI50 [3] | GI50 [5] | GI50 [7] | GI50 [8]
1 | COC(=O)Cc1cc(=O)oc2c1C(=O)CCC2 | > 100 µM | > 100 µM | > 100 µM | > 100 µM | > 100 µM | > 100 µM | > 100 µM | > 100 µM | > 100 µM | > 100 µM |  |  |  |  |  |  |  |  | 
2 | O=C(O)C(CS)N=Cc1nc(-c2ccccc2)oc1O (stereo not given) | > 100 µM | > 100 µM | > 100 µM | > 100 µM | > 100 µM | > 100 µM | > 100 µM | > 100 µM | > 100 µM | > 100 µM |  |  |  |  |  |  |  |  | 
3 | NC(=O)c1ncn(C2OC(CO)C(O)C2O)c1NC(=S)NC(=O)c1ccccc1 (stereo not given) | > 100 µM | > 100 µM | > 100 µM | > 100 µM | > 100 µM | > 100 µM | > 100 µM | > 100 µM | > 100 µM | > 100 µM |  |  |  |  |  |  |  |  | 
4 | CCCC/C=C1\CCC(CN2CCCC2)C1=O (stereo not given) | 26.1 µM | 31.8 µM | 11.1 µM | 3.21 µM | 33.5 µM | 38.2 µM |  |  | 32.8 µM | 32.3 µM |  |  |  |  |  |  |  |  | 
5 | CN1C=C(C(N)=O)C2CC(O)[C@@](NC(=O)CS(N)(=O)=O)(C(=O)O)C2C1 (stereo not given in full) | 29.2 µM | 7.38 µM | > 100 µM |  | 15.8 µM | 12.6 µM | 4.15 µM | 58.9 µM | 27 µM | 14.1 µM |  |  |  |  |  |  |  |  | 
6 | CCC1(Cl)C(=O)NC(=O)N(C2CC(O)C(CO)O2)C1N=[N+]=[N-] (stereo not given) | > 100 µM | > 100 µM | > 100 µM | > 100 µM | > 100 µM | > 100 µM | > 100 µM | > 100 µM | > 100 µM | > 100 µM |  |  |  |  |  |  |  |  | 
7 | CCCCOP1(=O)C=CC(Cl)=C(C)C1 (stereo not given) | 97.7 µM | 71.7 µM | 50 µM | 94.4 µM | > 100 µM | 80.8 µM | 73.7 µM | 85.6 µM |  | > 100 µM |  |  |  |  |  |  |  |  | 
8 | Cc1cc(N(CCC#N)CCC#N)ccc1/C=C/C(=O)Nc1ccccc1Cl | > 100 µM | > 100 µM | > 100 µM | > 100 µM | > 100 µM | > 100 µM | > 100 µM | > 100 µM | > 100 µM | > 100 µM |  |  |  |  |  |  |  |  | 
9 | COC(=O)C1=C(C(=O)OC)C(C(=O)OC)C(C(=O)OC)C(C(=O)OC)(C(=O)OC)C(C(=O)OC)=C1C(=O)OC (stereo not given) | 16.8 µM | 23.2 µM | 22.4 µM | 21.8 µM | 25.6 µM | 37.4 µM | > 52 µM | 10.5 µM | 27 µM | 30.7 µM | 30.1 µM |  |  |  |  |  |  |  | 
10 | C=C1C(=O)C23CC1CCC2C12CO[C@@]3(O)[C@@H](O)C1C(C)(C)C=CC2=O (stereo not given in full) | 1.86 µM and 10.1 µM |  | > 100 µM |  | 1.72 µM |  |  | 21.7 µM | 1.33 µM and 7.8 µM | 4.2 µM and 20.4 µM | 7.53 µM | 3.18 µM | 14.7 µM | 2.49 µM | 8.37 µM |  |  |  | 
11 | COc1cc(-c2nn3c(=O)n(-c4ccc(Cl)cc4)c(=O)nc3s2)cc(OC)c1OC | > 100 µM |  | 50 µM and > 31.6 µM |  | > 100 µM | > 100 µM | 50 µM and 99.8 µM | > 100 µM | > 100 µM | > 100 µM |  | > 50 µM | > 50 µM |  | > 50 µM | 15.8 µM | > 50 µM | 16.1 µM | > 100 µM
12 | c1cc2ccc1C1NCCCN1CCN1CCCNC1c1ccc(cc1)C1NCCCN1CCN1CCCNC21 (stereo not given) | > 100 µM | > 100 µM | > 100 µM | > 100 µM | > 100 µM | > 100 µM | > 100 µM | > 100 µM | > 100 µM | > 100 µM |  |  |  |  |  |  |  |  | 
13 | C=CCN(N=O)C(=O)ON1C(=O)CCC1=O | > 100 µM | > 100 µM | > 100 µM | > 100 µM | > 100 µM | > 100 µM | > 100 µM | > 100 µM | > 100 µM | > 100 µM |  |  |  |  |  |  |  |  | 
14 | O=C1OC(c2ccc(Cl)c3ccccc23)c2ccccc21 (stereo not given) | > 100 µM | > 100 µM | > 100 µM |  | > 100 µM | > 100 µM | > 100 µM | > 100 µM | > 100 µM | > 100 µM |  |  |  |  |  |  |  |  | 
15 | COc1cc(/C=C2/C(=O)N(C(=O)c3ccccc3O)N=C2C)ccc1O | > 80.7 µM | 7.73 µM | > 100 µM | > 100 µM | > 100 µM | > 100 µM | > 100 µM | > 100 µM | > 100 µM |  | > 100 µM |  |  |  |  |  |  |  | 
16 | Cc1ccc(N2C(=O)/C(=C3\Sc4c(nc(C)n(C)c4=O)N3c3ccccc3)SC2=S)cc1 | > 100 µM | 95.1 µM | > 100 µM | > 100 µM | > 100 µM | 44 µM | > 100 µM | > 100 µM | > 100 µM | > 100 µM |  |  |  |  |  |  |  |  | 
17 | CC(C)(C)c1cc(C(=O)O)c(C(c2ccccc2)c2ccccc2C(=O)O)c(C(=O)O)c1 (stereo not given) | > 100 µM | > 100 µM | > 100 µM | > 100 µM |  | > 100 µM | 37.7 µM |  | > 100 µM | > 100 µM |  |  |  |  |  |  |  |  | 
18 | C=C1c2ccccc2N(S(=O)(=O)c2ccc(C)cc2)C12CCCCC2 | > 100 µM | > 100 µM | > 100 µM | > 100 µM | > 100 µM | > 100 µM | > 100 µM | > 100 µM | > 100 µM | > 100 µM |  |  |  |  |  |  |  |  | 
19 | CCOC(=O)c1cc(C(=O)O)c(=O)n2c1[nH]c1ccccc12 | > 100 µM | > 100 µM | > 100 µM | > 100 µM | > 100 µM | > 100 µM | > 100 µM | > 100 µM | > 100 µM | 87.7 µM |  |  |  |  |  |  |  |  | 
